Experimental data from publication PMC6044830 (ACS Omega, 2017).

Biological target: PDE4D2 (Homo sapiens, UniProt Q08499)
Assay: PDE4D2 assay
Assay type: biochemical
Settings: read-out: PDE4D2 (IC50); human recombinant PDE4D2, catalytic domain

PDE4D2, sequence (Q08499 381-740): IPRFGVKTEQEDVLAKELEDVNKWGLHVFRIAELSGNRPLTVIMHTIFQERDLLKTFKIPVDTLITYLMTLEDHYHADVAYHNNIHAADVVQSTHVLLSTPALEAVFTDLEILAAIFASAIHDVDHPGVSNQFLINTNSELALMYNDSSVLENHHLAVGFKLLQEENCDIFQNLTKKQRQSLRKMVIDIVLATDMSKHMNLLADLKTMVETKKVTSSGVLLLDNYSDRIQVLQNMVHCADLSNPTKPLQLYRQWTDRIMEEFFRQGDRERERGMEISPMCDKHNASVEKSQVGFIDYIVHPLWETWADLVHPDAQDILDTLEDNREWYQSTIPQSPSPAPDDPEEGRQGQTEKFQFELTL

## OCc1ccc2c(c1C#Cc1ccc(O)cc1)C(c1ccc(O)cc1)(c1ccc(O)cc1)c1cc(O)ccc1-2 [Compound 3, selaginpulvilin A]
  IC50: 240 ± 40 nM

## Cc1ccc(-c2ccc(O)cc2)c(C(=C2C=CC(=O)C=C2)c2ccc(O)cc2)c1C#Cc1ccc(O)cc1 [Compound 8, selaginellin B]
  IC50: 140 ± 16 nM
